Reference: PMC8119374 (Biochimie, 2021)

Target: mitochondrial respiratory Complex I (Mus musculus, UniProt P03888+Q91WD5+Q9DC70)
Assay type: biochemical

Cc1cc(OCc2nnc(SC3CCCC3)n2-c2cccnc2)ccc1-c1ccc(S(C)(=O)=O)cc1 [NMS-873]
IC50: 471 nM
